# Measurements taken from the supplement of paper PMC10331698.
# ± gives the standard deviation of the averaged measurements.
# Tests used:
# Assay in all cases: level (log10 ratio to DMSO vehicle control); higher = higher biomarker level / cell amount than vehicle control
# Conditions in all cases: in DMSO
# [1] = compound: C=CC(=O)OCC(F)(F)C(F)(F)C(F)(F)C(F)(F)C(F)(F)C(F)(F)C(F)(F)F [1H,1H-Perfluorooctyl acrylate]
# Procedure: (§1)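 BioMAP Diversity Plus panel of 12 human primary cell co-culture systems (3C, 4H, LPS, SAg, BT, BF4T, BE3C, CASM3C, HDF3CGF, KF3CT, MyoF, Mphg). Compounds were added 1 h before stimulation and left for 24 h (MyoF 48 h; BT 72 h for soluble read-outs or 6 d for IgG). Biomarkers were read by ELISA, cytotoxicity by SRB, PBMC viability and proliferation by Alamar Blue. Each well value was divided by the mean of 8 DMSO control wells on the same plate and log10 transformed; duplicate blinded samples were tested at 4 concentrations.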
# [2] = compound: C=CC(F)(F)C(F)(F)C(F)(F)C(F)(F)C(F)(F)C(F)(F)C(F)(F)C(F)(F)C=C [1,8-Divinylperfluorooctane]
# Procedure: as §1
# Perfluoro-1-iodohexane = compound: FC(F)(F)C(F)(F)C(F)(F)C(F)(F)C(F)(F)C(F)(F)I [Perfluoro-1-iodohexane]
# Procedure: as §1
# Pentafluoropropionamide = compound: NC(=O)C(F)(F)C(F)(F)F [Pentafluoropropionamide]
# Procedure: as §1
# [3] = compound: O=C(O)C(F)(F)C(F)(F)C(F)(F)C(F)(F)C(F)(F)C(F)(F)C(F)(F)C(F)F [9-H-Perfluorononanoic acid]
# Procedure: as §1
# Perfluoropentanoic acid = compound: O=C(O)C(F)(F)C(F)(F)C(F)(F)C(F)(F)F [Perfluoropentanoic acid]
# Procedure: as §1
# [4] = compound: O=S(=O)(O)C(F)(F)C(F)(F)C(F)(F)C(F)(F)C(F)(F)C(F)(F)F [Perfluorohexanesulfonic acid]
# Procedure: as §1
Test System,level (log10) ([1]; 6700 nM),level (log10) ([1]; 20000 nM),level (log10) ([1]; 60000 nM),level (log10) ([2]; 6700 nM),level (log10) ([2]; 20000 nM),level (log10) (Perfluoro-1-iodohexane; 6700 nM),level (log10) (Perfluoro-1-iodohexane; 20000 nM),level (log10) (Perfluoro-1-iodohexane; 60000 nM),level (log10) (Pentafluoropropionamide; 6700 nM),level (log10) (Pentafluoropropionamide; 20000 nM),level (log10) (Pentafluoropropionamide; 60000 nM),level (log10) ([3]; 6700 nM),level (log10) ([3]; 20000 nM),level (log10) ([3]; 60000 nM),level (log10) (Perfluoropentanoic acid; 6700 nM),level (log10) (Perfluoropentanoic acid; 20000 nM),level (log10) (Perfluoropentanoic acid; 60000 nM),level (log10) ([4]; 6700 nM),level (log10) ([4]; 20000 nM),level (log10) ([4]; 60000 nM)
LPS:CCL2/MCP-1,-0.003 ± 0.017,-0.0045 ± 0.005,0.005 ± 0.0099,0.0065 ± 0.021,0.0145 ± 0.029,-0.0025 ± 0.005,-0.009 ± 0.0014,0.0015 ± 0.032,-0.0035 ± 0.011,-0.017 ± 0.0028,0.008 ± 0.04,-0.0165 ± 0.005,-0.0055 ± 0.0021,0.0405 ± 0.025,0.0065 ± 0.0064,-0.0065 ± 0.00071,0.0225 ± 0.039,0.0045 ± 0.0064,0.0045 ± 0.0064,0.028 ± 0.024
LPS:SRB,-0.006 ± 0.0028,-0.0095 ± 0.0078,-0.012 ± 0.016,-0.005 ± 0.0057,0.013 ± 0.0099,-0.0025 ± 0.0064,-0.0055 ± 0.0064,-0.0085 ± 0.00071,0 ± 0.014,-0.006 ± 0.0014,-0.0105 ± 0.00071,-0.005 ± 0.016,-0.01 ± 0.014,-0.022 ± 0.0099,0.0015 ± 0.0078,0.004,0.003 ± 0.0085,-0.0075 ± 0.013,-0.0115 ± 0.00071,-0.0175 ± 0.018
LPS:IL-1alpha,0.0165 ± 0.018,0.033 ± 0.023,0.042 ± 0.025,0.0095 ± 0.019,0.0295 ± 0.012,-0.048 ± 0.035,-0.042 ± 0.021,-0.004 ± 0.0014,0.0225 ± 0.036,-0.0175 ± 0.019,0.0255 ± 0.047,0.0095 ± 0.042,-0.0105 ± 0.00071,-0.014 ± 0.0099,-0.0005 ± 0.00071,-0.0115 ± 0.012,-0.021 ± 0.017,-0.001 ± 0.0085,0.0075 ± 0.029,0.0365 ± 0.026
SAg:CXCL9/MIG,0.003 ± 0.0099,-0.009 ± 0.0014,0.0015 ± 0.012,-0.0115 ± 0.0092,0.0055 ± 0.018,-0.0205 ± 0.028,-0.005 ± 0.014,0.0045 ± 0.032,-0.0145 ± 0.0021,-0.017 ± 0.0014,0.009 ± 0.014,-0.01 ± 0.017,-0.0055 ± 0.015,0.0055 ± 0.0064,-0.0115 ± 0.0078,-0.014 ± 0.0099,0.004 ± 0.021,0.004,-0.005 ± 0.0057,0.0035 ± 0.0078
4H:CCL26/Eotaxin-3,0.002 ± 0.023,-0.002 ± 0.0057,-0.0005 ± 0.0021,0.013 ± 0.0085,0.0345 ± 0.013,0.014 ± 0.013,0.016 ± 0.017,0.016 ± 0.021,-0.001 ± 0.013,-0.0015 ± 0.013,0.0065 ± 0.026,-0.002 ± 0.0085,-0.0035 ± 0.013,-0.0155 ± 0.0064,0.0015 ± 0.0035,-0.0185 ± 0.022,0.004 ± 0.05,-0.0105 ± 0.00071,-0.001 ± 0.02,-0.047 ± 0.018
BE3C:IL-1alpha,-0.006 ± 0.018,-0.0095 ± 0.0035,-0.0105 ± 0.019,0.001 ± 0.02,0.026 ± 0.0057,-0.0155 ± 0.013,-0.009 ± 0.0014,-0.0195 ± 0.013,0.0095 ± 0.022,0.003 ± 0.014,0.0295 ± 0.0035,0.032 ± 0.0028,0.014 ± 0.028,0.026 ± 0.0028,0.005 ± 0.02,0 ± 0.0028,0.0155 ± 0.029,0.0145 ± 0.042,0.02 ± 0.018,0.0545 ± 0.0021
BT:sTNF-alpha,-0.029 ± 0.027,-0.0585 ± 0.044,-0.19 ± 0.043,0.016 ± 0.13,0.102 ± 0.081,0.009 ± 0.031,-0.0095 ± 0.14,-0.0015 ± 0.16,0.0135 ± 0.0078,0.0225 ± 0.081,-0.0025 ± 0.0092,0.032 ± 0.069,0.076 ± 0.014,0.032 ± 0.04,-0.0575 ± 0.25,0.0875 ± 0.012,0.105 ± 0.04,0.024 ± 0.13,-0.011 ± 0.034,-0.0495 ± 0.044
4H:CCL2/MCP-1,-0.0145 ± 0.00071,-0.015 ± 0.0028,0.0165 ± 0.026,-0.0315 ± 0.005,0.013 ± 0.035,0.0085 ± 0.015,-0.008 ± 0.0028,0.0145 ± 0.029,-0.028 ± 0.0042,-0.0445 ± 0.03,0 ± 0.075,-0.028 ± 0.013,-0.059 ± 0.017,-0.0405 ± 0.081,-0.0085 ± 0.052,-0.047 ± 0.0042,0.014 ± 0.052,-0.0205 ± 0.044,-0.049 ± 0.031,-0.0195 ± 0.054
BT:sIL-2,-0.0455 ± 0.11,0.031 ± 0.028,-0.0025 ± 0.042,0.014 ± 0.035,0.022 ± 0.05,0.0065 ± 0.052,-0.0005 ± 0.1,-0.0005 ± 0.098,0.0375 ± 0.0092,0.002 ± 0.03,0.038 ± 0.017,-0.0245 ± 0.057,0.006 ± 0.05,0.0195 ± 0.032,-0.0115 ± 0.17,0.0385 ± 0.00071,0.0385 ± 0.0078,-0.059 ± 0.031,0.0015 ± 0.035,-0.001 ± 0.027
BF4T:CD90,-0.013 ± 0.014,-0.003 ± 0.0028,-0.004 ± 0.031,0.0025 ± 0.0064,-0.002 ± 0.0071,-0.0085 ± 0.0035,-0.002 ± 0.018,-0.002 ± 0.011,-0.0025 ± 0.0064,0.0005 ± 0.0064,-0.0045 ± 0.015,-0.0705 ± 0.021,-0.0605 ± 0.013,-0.0685 ± 0.015,-0.02 ± 0.0085,-0.0105 ± 0.005,-0.0025 ± 0.025,-0.001 ± 0.014,-0.0115 ± 0.0078,-0.0305 ± 0.0064
